Reference: US20190256930A1, “BIOMARKERS FOR DETERMINING RESPONSIVENESS TO LSD1 INHIBITORS” (ORYZON GENOMICS, S.A., priority 2016, published 2019)
“And” between values parts separate entries of the source, which are not always exact repeats. Equal values may be shown once.

What was measured:
Assay type in all cases: in vivo, human
[1] = tested on: Ly96; test: Gene expression by qRT-PCR in peripheral blood of acute leukemia patients; conditions: individual patients, within 98 and 168 h after first dose, relative to HPRT1 and pre-dose, negative = up-regulation
Description: (§1) Plasma for pharmacokinetic determinations was separated by centrifugation. The remaining cell volume was resuspended in 2 mL PBS and an aliquot of […] was stabilized in a PAXgene® Blood RNA tube as described by the vendor and kept frozen for subsequent RNA extraction and qRT-PCR.
(§2) RNA extraction was performed using PAXgene® Blood RNA Kit (PreAnalytix) as described by the vendor. RNA quality was assessed using an Agilent 2100 Bioanalyzer™ and quantity was measured using a NanoDrop™ spectrophotometer.
(§3) An amount of 0.5 micrograms of total RNA was reverse transcribed to obtain 1st strand cDNA (iScript® Reverse Transcription Supermix for RTqPCR; Bio-Rad).
(§4) Gene expression was analyzed by qRT-PCR, a variant of the PCR (Polymerase Chain Reaction) method that permits the simultaneous exponential amplification and detection of specific cDNA fragments. Taqman gene expression assays were used, which employ the principle of doubly labeled hydrolysis probes marked with a fluorescent moiety at their 5′ end and with a quencher moiety at the 3′ end, which prevents the generation of fluorescence according to the Förster energy transfer principle.
(§5) In the exponential phase of the amplification reaction, the intensity of the fluorescence is directly proportional to the quantity of PCR product formed. The LightCycler® 480 Software determines the “crossing point” (Cp), i.e. the point where the reaction's fluorescence reaches the maximum of the second derivative of the amplification curve, which corresponds to the point where the acceleration of the fluorescence signal is at its maximum. The Cp values reflect the target mRNA concentration in the original RNA sample. Differences in Cp values (ΔCp) for a gene X of interest in a given sample relative to a control sample reflect changes in mRNA concentration of the gene X in a given amount of total RNA in the respective sample, and are calculated as:
(§6) ΔΔCp, gene X=[Cp(sample, gene X)−Cp(sample, reference gene)]−[Cp(control, gene X)−Cp(control, reference gene)]
(§7) The fold change in mRNA concentration is calculated as 2^−ΔΔCp, a negative ΔΔCp representing an increase in the expression level, and vice versa.
(§8) An amount of 0.5 micrograms of the 1st strand product was used to perform qRT-PCR reactions in triplicate (Taqman® gene expression assay, Life technologies, see Table 3) in a Roche LightCycler®480. In order to analyze the changes in the expression levels of ANXA2, CAMSAP2, CD86, CRISP9, CTSG, GPR65, ITGAM, LY96, LYZ, S100A12, VCAN, and VIM, ΔΔCp values for a given patient and time point were calculated as described above, relative to the endogenous reference gene HPRT1 and to a control sample obtained from the same patient at pre-dose (i.e. prior to administration of the first dose of ORY-1001 to said patient).
(§9) For the analysis of the gene expression data, the time point (or time interval) showing the maximum response is typically selected. This time point/interval may change depending on the specific dose, administration scheme, etc. In the present study, all the gene expression and correlation analysis was performed by using the data obtained after administration of day 5, i.e. within the time interval between 98 and 168 h after the first dose. The maximum response observed within this time interval is referred to in the tables herein as “Maximum response (ΔΔCp) on day 5”.

[2] = tested on: LYZ; test: as above; conditions: individual patients, within 98 and 168 h after first dose, relative to HPRT1 and pre-dose, negative = up-regulation
Description: as §1, §2, §3, §4, §5, §6, §7, §8, §9

[3] = tested on: ANXA2; test: as above; conditions: individual patients, within 98 and 168 h after first dose, relative to HPRT1 and pre-dose, negative = up-regulation
Description: as §1, §2, §3, §4, §5, §6, §7, §8, §9

[4] = tested on: CTSG; test: as above; conditions: individual patients, within 98 and 168 h after first dose, relative to HPRT1 and pre-dose, negative = up-regulation
Description: as §1, §2, §3, §4, §5, §6, §7, §8, §9

[5] = tested on: CAMSAP2; test: as above; conditions: individual patients, within 98 and 168 h after first dose, relative to HPRT1 and pre-dose, negative = up-regulation
Description: as §1, §2, §3, §4, §5, §6, §7, §8, §9

[6] = tested on: CD86; test: as above; conditions: individual patients, within 98 and 168 h after first dose, relative to HPRT1 and pre-dose, negative = up-regulation
Description: as §1, §2, §3, §4, §5, §6, §7, §8, §9

[7] = tested on: GPR65; test: as above; conditions: individual patients, within 98 and 168 h after first dose, relative to HPRT1 and pre-dose, negative = up-regulation
Description: as §1, §2, §3, §4, §5, §6, §7, §8, §9

[8] = tested on: VIM; test: as above; conditions: individual patients, within 98 and 168 h after first dose, relative to HPRT1 and pre-dose, negative = up-regulation
Description: as §1, §2, §3, §4, §5, §6, §7, §8, §9

[9] = tested on: VCAN; test: as above; conditions: individual patients, within 98 and 168 h after first dose, relative to HPRT1 and pre-dose, negative = up-regulation
Description: as §1, §2, §3, §4, §5, §6, §7, §8, §9

[10] = tested on: ITGAM; test: as above; conditions: individual patients, within 98 and 168 h after first dose, relative to HPRT1 and pre-dose, negative = up-regulation
Description: as §1, §2, §3, §4, §5, §6, §7, §8, §9

[11] = tested on: S100A12; test: as above; conditions: individual patients, within 98 and 168 h after first dose, relative to HPRT1 and pre-dose, negative = up-regulation
Description: as §1, §2, §3, §4, §5, §6, §7, §8, §9

[12] = tested on: GPR65; test: as above; conditions: individual patients
[13] = tested on: blast cells; test: Clinical response: morphological blast differentiation and blast counts in smears of bone marrow aspirate and/or peripheral blood, Phase I extension cohort
From the text: As part of a Phase I clinical study assessing the human pharmacokinetics and safety of ORY-1001 in acute leukemia patients, an extension cohort of 14 patients (mean age 57; range 30-78, gender 8M/6F) was opened in order to provide a preliminary assessment of efficacy. A summary of the patients recruited in this extension cohort can be found in Table 1.
Preliminary clinical efficacy endpoints included (a) morphological blast differentiation and (b) decrease in blast %. In addition, gene expression determinations of selected markers were performed.
Each patient received ORY-1001 for oral intake as a solution at a dose of 140 microgram/m2/day (as free base) q.d., during 5 consecutive days with 2 days of rest, for 4 cycles (total of 28 days), or until disease progression or unacceptable toxicity was observed.
For the evaluation of the morphological blast differentiation and blast counts, smears of bone marrow aspirate and/or peripheral blood were prepared, stained by the May-Grünwald-Giemsa method, and microscopically examined in accordance with ICSH guidelines (ICSH guidelines for the standardization of bone marrow specimens and reports, Lee S H, Erber W N, Porwit A, Tomonaga M, Peterson L C; International Council for Standardization In Hematology, International journal of laboratory hematology 2008 October; 30(5):349-64).

[14] = tested on: S100A12; test: Gene expression by qRT-PCR in peripheral blood of acute leukemia patients; conditions: individual patients
[15] = tested on: S100A12 and VCAN; test: S100A12 and VCAN gene expression in patients developing a differentiation syndrome; conditions: patients developing a differentiation syndrome (Patients 01 and 09); within 98 and 168 h after the first dose
Description: as §8
For the analysis of the gene expression data, the time point (or time interval) showing the maximum response is typically selected. This time point/interval may change depending on the specific dose, administration scheme, etc. In the present study, all the gene expression and correlation analysis was performed by using the data obtained after administration of day 5, i.e. within the time interval between 98 and 168 h after the first dose. The maximum response observed within this time interval is referred to in the tables herein as “Maximum response (ΔΔCp) on day 5”. […]

[16] = tested on: S100A12, VCAN, ITGAM, LY96, ANXA2, CD86, GPR65, CRISP9, LYZ, and VIM; test: Correlation of marker gene expression (qRT-PCR, peripheral blood) with response to ORY-1001; conditions: day 5
Description: as §8, §9
Possible correlations between expression changes in marker genes described in table 5 and response to ORY-1001 treatment (see Table 2) were investigated.
The expression levels of Ly96 and ITGAM did additionally correlate with the variation of blast cells in bone marrow (see FIGS. 1A and 1B), particularly in M4/M5 subtypes, further supporting the utility of these marker genes in monitoring response to ORY-1001 treatment in easily accessible samples such as peripheral blood.

[17] = within 602 and 768 h after the first administration
[18] = within first 24 h after the first administration
[19] = peripheral blood and/or bone marrow, extension cohort of 14 patients, all four FAB subtypes
[20] = patients showing both blast morphological differentiation and a decrease in blast cells, particularly M4/M5
[21] = patients showing no morphological differentiation and/or no effect or increase in blast cells

For `N[C@H]1CC[C@H](N[C@@H]2C[C@H]2c2ccccc2)CC1` [ORY-1001, (trans)-N1-((1R,2S)-2-phenylcyclopropyl)cyclohexane-1,4-diamine], the “Maximum response (ΔΔCp) on day 5, Ly96” value [1] was −1.6 ΔΔCp and −2.9 ΔΔCp and 2.3 ΔΔCp and −3.3 ΔΔCp and 3.0 ΔΔCp and −4.3 ΔΔCp and −3.1 ΔΔCp and −4.8 ΔΔCp and 2.4 ΔΔCp and −3.2 ΔΔCp and −5.1 ΔΔCp and −4.1 ΔΔCp and −1.5 ΔΔCp, the “Maximum response (ΔΔCp) on day 5, LYZ” value [2] was 2.9 ΔΔCp and 3.2 ΔΔCp and −1.2 ΔΔCp and 1.7 ΔΔCp and −2.3 ΔΔCp and 2.5 ΔΔCp and −2.2 ΔΔCp and −3.9 ΔΔCp and −0.6 ΔΔCp and 2.4 ΔΔCp and 1.2 ΔΔCp and the “Maximum response (ΔΔCp) on day 5, ANXA2” value [3] was 2.0 ΔΔCp and −1.1 ΔΔCp and −2.6 ΔΔCp and 1.9 ΔΔCp and −1.9 ΔΔCp and −2.0 ΔΔCp and −3.8 ΔΔCp and −1.6 ΔΔCp and −1.4 ΔΔCp and 3.2 ΔΔCp. The “Maximum response (ΔΔCp) on day 5, CTSG” value [4] was 2.3 ΔΔCp and 3.9 ΔΔCp and 3.3 ΔΔCp and 1.8 ΔΔCp and 2.2 ΔΔCp and −1.8 ΔΔCp and 7.6 ΔΔCp and −3.6 ΔΔCp and −1.7 ΔΔCp and −2.5 ΔΔCp and −0.7 ΔΔCp, the “Maximum response (ΔΔCp) on day 5, CAMSAP2” value [5] was −2.8 ΔΔCp and −1.9 ΔΔCp and 1.2 ΔΔCp and 3.1 ΔΔCp and 1.6 ΔΔCp and −3.7 ΔΔCp and −4.3 ΔΔCp and −2.5 ΔΔCp and −2.3 ΔΔCp and −3.0 ΔΔCp and −2.9 ΔΔCp and −1.4 ΔΔCp and the “Maximum response (ΔΔCp) on day 5, CD86” value [6] was −1.8 ΔΔCp and 2.2 ΔΔCp and 2.5 ΔΔCp and −2.9 ΔΔCp and −3.0 ΔΔCp and −2.0 ΔΔCp and −3.3 ΔΔCp and 0.8 ΔΔCp and −4.4 ΔΔCp and −2.5 ΔΔCp and −2.8 ΔΔCp and 1.3 ΔΔCp. The “Maximum response (ΔΔCp) on day 5, GPR65” value [7] was −1.8 ΔΔCp and −1.4 ΔΔCp and −1.3 ΔΔCp and −3.8 ΔΔCp and 3.1 ΔΔCp and −0.9 ΔΔCp and 2.3 ΔΔCp and −4.8 ΔΔCp and −3.0 ΔΔCp and −2.3 ΔΔCp and 4.4 ΔΔCp and −1.5 ΔΔCp, the “Maximum response (ΔΔCp) on day 5, VIM” value [8] was −1.2 ΔΔCp and −1.3 ΔΔCp and −0.5 ΔΔCp and 2.2 ΔΔCp and 1.7 ΔΔCp and −2.4 ΔΔCp and −3.4 ΔΔCp and −2.2 ΔΔCp and −0.4 ΔΔCp and 1.3 ΔΔCp and −0.6 ΔΔCp and the “Maximum response (ΔΔCp) on day 5, VCAN” value [9] was 2.2 ΔΔCp and 2.0 ΔΔCp and −0.8 ΔΔCp and −9.1 ΔΔCp and 1.8 ΔΔCp and 3.4 ΔΔCp and −2.2 ΔΔCp and −2.1 ΔΔCp and −4.2 ΔΔCp and −1.2 ΔΔCp and 1.6 ΔΔCp and 1.2 ΔΔCp. The “Maximum response (ΔΔCp) on day 5, ITGAM” value [10] was 1.7 ΔΔCp and 1.6 ΔΔCp and 2.1 ΔΔCp and −2.3 ΔΔCp and 3.0 ΔΔCp and 3.1 ΔΔCp and −1.3 ΔΔCp and 3.2 ΔΔCp and −3.0 ΔΔCp and −3.7 ΔΔCp and −2.8 ΔΔCp and 1.8 ΔΔCp, the “Maximum response (ΔΔCp) on day 5, S100A12” value [11] was −4.5 ΔΔCp and −1.7 ΔΔCp and 1.7 ΔΔCp and 1.3 ΔΔCp and 2.7 ΔΔCp and −5.0 ΔΔCp and 3.0 ΔΔCp and 0.8 ΔΔCp and 2.4 ΔΔCp and 2.0 ΔΔCp and 2.1 ΔΔCp and 3.9 ΔΔCp and −2.1 ΔΔCp and the “GPR65 Day 26 maximum response” value [12, 17] was −3.2 ΔΔCp and −4.8 ΔΔCp. The “GPR65 Day 1 maximum response” value [12, 18] was 2.2 ΔΔCp and −1.1 ΔΔCp, the “% Blast variation (peripheral blood)” value ([13]; individual patients, peripheral blood, variation of blast % between pre- and post-treatment (day 7 to 29), 140 microgram/m2/day oral) was “↓ −32% (peripheral blood) and ↓ −55% (peripheral blood) ^e and =(peripheral blood) and ↓ −55% and =” and the “patients with decrease in blast cells” value [13, 19] was 6/14. For the same compound, the “patients with morphologic blast differentiation” value [13, 19] was 5/14, the “S100A12 Day 26 maximum response” value [14, 17] was −7.1 ΔΔCp and −2.8 ΔΔCp and the “S100A12 Day 1 maximum response” value [14, 18] was −2.1 ΔΔCp and −0.4 ΔΔCp. For the same compound, the “S100A12 and VCAN exacerbated up-regulation (fold)” value [15] was 18 to 550 fold, the “S100A12 and VCAN exacerbated up-regulation (ΔΔCp)” value [15] was −4.2 to −9.1 ΔΔCp and the “up-regulation of the gene markers (fold)” value [16, 20] was 1.3 to 550 fold. For the same compound, the “up-regulation of the gene markers (ΔΔCp)” value [16, 20] was −0.4 to −9.1 ΔΔCp, the “down-regulation of some of the genes (fold change)” value [16, 21] was 0.6 to 0.05 fold and the “down-regulation of some of the genes (ΔΔCp)” value [16, 21] was 0.8 to 4.4 ΔΔCp.
